Experiments:
Format in all cases: in vivo, mouse
[1] = test system: colon cancer-derived Colon26 cells; test: Example 11: hCCR8-KI (KI/KI) mice inoculated with Colon26 cells, oxaliplatin combination (Part 2); conditions: as Example 6; 2-7B part: oxaliplatin 10, 14, 17 days, antibody 14, 17 days; 19D7 part: oxaliplatin 10, 14 days, antibody 14 days; combinations from 10 days; Student's T one-sided
Description: To an oxaliplatin single administration group, saline was intravenously administered 5 days after tumor inoculation, and oxaliplatin (trade name: ELPLAT, Yakult Honsha Company, Limited) at 5 mg/kg body weight was intravenously administered 3 hours after the administration of the saline (N=10). To an anti-mouse CCR8 antibody and oxaliplatin combined administration group, an anti-human CCR8 antibody at 15 mg/kg body weight was intravenously administered 5 days after tumor inoculation, and oxaliplatin at 5 mg/kg body weight was intravenously administered 3 hours after the administration of the anti-mouse CCR8 antibody (N=10). To a control group, saline was intravenously administered 5 days after tumor inoculation, and saline was intravenously administered 3 hours after the administration of the saline (N=10). […] Tumor volumes were measured every 1 to 3 days from 4 days after tumor inoculation (a day before antibody administration). The tumor volume (mm^3) was measured in long diameter (mm)×short diameter (mm)×short diameter (mm)/2, and a significant difference test based on a Mann-Whitney U method (significance level: P<0.05) was conducted. […]

[2] = test system: colon cancer-derived Colon26 cells; test: Example 5: Balb/c mice inoculated with Colon26 cells, oxaliplatin or 5-FU combination; conditions: antibody 50 μg iv day 5; oxaliplatin 5 mg/kg or 5-FU 30 mg/kg iv 1 hour later; oxaliplatin and antibody single 4, 7, 10, 12, 14, 17 days; 5-FU single only 7 days; combinations from 10 days; Mann-Whitney U
Description: The back of each Balb/c mouse (5 weeks old, female) was intracutaneously inoculated with 3.5×10^5 colon cancer-derived Colon26 cells (50 μL).
To an anti-mouse CCR8 antibody single administration group, 50 μg (200 μL) of an anti-mouse CCR8 antibody (clone SA214G2, BioLegend, Inc.) was intravenously administered 5 days after tumor inoculation, and saline was intravenously administered at a volume of 10 ml/kg body weight 1 hour after the administration of the anti-mouse CCR8 antibody (N=10).
To an oxaliplatin single administration group, 50 μg (200 μL) of an isotype control antibody was intravenously administered 5 days after tumor inoculation, and oxaliplatin (trade name: ELPLAT, Yakult Honsha Company, Limited) at 5 mg/kg body weight was intravenously administered at a volume of 10 mL/kg body weight 1 hour after the administration of the isotype control antibody (N=10). […]
Tumor volumes were measured every 2 to 3 days from 4 days after tumor inoculation (a day before antibody administration). The tumor volume (mm^3) was measured in long diameter (mm)×short diameter (mm)×short diameter (mm)/2, and a significant difference test based on a Mann-Whitney U method (significance level: P<0.05) was conducted.

[3] = test system: colon cancer-derived Colon26 cells; test: Example 6: hCCR8-KI (KI/KI) mice inoculated with Colon26 cells, oxaliplatin combination; conditions: antibody 15 mg/kg iv day 5; oxaliplatin 5 mg/kg iv 3 hours later; single groups 4, 7, 10, 12, 14, 17, 18 days, combined from 7 days; Mann-Whitney U
Description: The back of each hCCR8-KI (KI/KI) mouse (12 weeks old, female) prepared in Test Example 10 was intracutaneously inoculated with 3.5×10^5 colon cancer-derived Colon26 cells (50 uL).
To an anti-human CCR8 antibody single administration group, an anti-human CCR8 antibody (humanized 10A11 antibody (light chain variable region: IGKV4-1 N53Q+G29R (SEQ ID NO: 59)/heavy chain variable region: IGHV3-15 T94R (SEQ ID NO: 41))) at 15 mg/kg body weight was intravenously administered 5 days after tumor inoculation, and saline was intravenously administered 3 hours after the administration of the anti-human CCR8 antibody (N=10). To an oxaliplatin single administration group, saline was intravenously administered 5 days after tumor inoculation, and oxaliplatin (trade name: ELPLAT, Yakult Honsha Company, Limited) at 5 mg/kg body weight was intravenously administered 3 hours after the administration of the saline (N=10). […] Tumor volumes were measured every 1 to 3 days from 4 days after tumor inoculation (a day before antibody administration). The tumor volume (mm^3) was measured in long diameter (mm)×short diameter (mm)×short diameter (mm)/2, and a significant difference test based on a Mann-Whitney U method (significance level: P<0.05) was conducted.

[4] = test system: colon cancer-derived CT26 cells; test: Example 12: hCCR8-KI (KI/KI) mice inoculated with CT26 cells, 5-FU combination; conditions: antibody 0.1 mg/kg iv day 5; 5-FU 30 mg/kg iv 3 hours later; single groups 8, 12, 15 days, combined from 8 days; Mann-Whitney U
Description: The back of each hCCR8-KI (KI/KI) mouse (14 weeks old, female) prepared in Test Example 10 was intracutaneously inoculated with 3.5×10^5 colon cancer-derived CT26 cells (50 μL).
To an anti-human CCR8 antibody single administration group, an anti-human CCR8 antibody (humanized 10A11 antibody (light chain variable region: IGKV4-1 N53Q+G29R (SEQ ID NO: 59)/heavy chain variable region: IGHV3-15 T94R (SEQ ID NO: 41)) was intravenously administered at 0.1 mg/kg body weight 5 days after tumor inoculation, and saline was intravenously administered 3 hours after the administration of the anti-human CCR8 antibody (N=8). To a 5-FU single administration group, a saline was intravenously administered 5 days after tumor inoculation, and 5-FU (trade name: 5-FU INJECTION 250 KYOWA, Kyowa Hakko Kirin Co. Ltd) was intravenously administered at 30 mg/kg body weight 3 hours after the administration of the saline (N=8). […] Tumor volumes were measured every 3 to 4 days from […] after tumor inoculation (a day before antibody administration). The tumor volume (mm^3) was measured in long diameter (mm)×short diameter (mm)×short diameter (mm)/2, and a significant difference test based on a Mann-Whitney U method (significance level: P<0.05) was conducted.

Structure (SMILES)	tumor volume as compared to the control group [1]	tumor volume as compared to the control group [2]	tumor volume as compared to the control group [3]	tumor volume as compared to the control group [4]
O=C1[O][Pt]2([NH][C@@H]3CCCC[C@H]3[NH]2)[O]C1=O [oxaliplatin, reference compound]	no significant decrease	no significant decrease	no significant decrease	
O=c1[nH]cc(F)c(=O)[nH]1 [5-FU, fluorouracil, reference compound]		significant decrease		no significant decrease

Source: patent publication US20230256092A1, “COMBINED USE OF ANTI-CCR8 ANTIBODY AND CHEMOTHERAPEUTIC AGENT” (Shionogi & Co., Ltd., priority 2020, published 2023)
